The structures appear in SMILES notation.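 Five compound concentrations were applied to cells in 96-well plates for 48 hours; endpoints were derived by simple linear interpolation of the resulting dose-response curve. GI50 = concentration required for 50% inhibition of growth. TGI is the concentration that stops growth completely.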

The test system of the assay is MDA-MB-468 breast. The experiment in a line: inhibition of tumour cell growth, NCI panel, 48 h.
For `COc1cc(C2C3=C(COC3=O)N(CCO)c3cc4c(cc32)CCC4)cc(OC)c1O` (stereo not drawn), the GI50 is 89.1 nM.
As for `O=C1c2cccnc2C(=O)c2c1c(C(=O)OCCCN1CCOCC1)c1ccccn21`, the GI50 is 1390 nM and the TGI was determined as 7100 nM.
Take `CCOC(=O)c1[nH]c2c(c1C)-c1[nH]c(=O)c(S(=O)(=O)c3ccccc3)cc1SC2`: the GI50 was 54000 nM and the TGI is above 100000 nM.
`O=C1OC(c2ccc(O)cc2)(c2ccc(O)cc2)c2cccc3cccc1c23`: the GI50 is 4060 nM and the TGI was determined as 21700 nM.
Regarding `COc1ccccc1Cn1cc2c(c1)-c1oncc1CC2`, the GI50 is 217 nM and the TGI came out at 697 nM.
`CC1Cc2c(N(C)C)ncnc2N(C)c2ccc(Cl)cc21` (stereo not drawn): the GI50 is 2660 nM and the TGI was determined as 67700 nM.
In the case of `Nc1ncnc2occ(-c3ccc(NC(=O)Nc4cc(C(F)(F)F)cc(C(F)(F)F)c4)cc3)c12`, the GI50 is 2750 nM and the TGI was found to be 7810 nM.
`O=C1C=C(Nc2cccc(Br)c2)c2ccccc2C1=O`: the GI50 was 17600 nM and the TGI was 83800 nM.
With `COc1ccccc1C(=O)c1cnc(NC2CCN(S(C)(=O)=O)CC2)nc1N`, the GI50 is 7790 nM and the TGI was above 25000 nM.
As for `Cc1ccc([P+](Cc2ccc([N+](=O)[O-])cc2)(c2ccc(C)cc2)c2ccc(C)cc2)cc1`, the GI50 was 660 nM and the TGI stood at 5800 nM.
For `NS(=O)(=O)c1ccc(Nc2nc(Nc3ccccc3)nc(-n3nc(-c4ccccc4)cc3-c3ccccc3)n2)cc1` the same measures were 2310 nM and 6950 nM.
Turning to `C/C(=C(/c1ccc(O)cc1)c1ccc(OCCN2CCCC2)cc1)c1ccccc1`, the GI50 was 1840 nM and the TGI was found to be 4470 nM.
For `Cc1nn(-c2ccccc2)c2c1C1C(=C(c3ccc(Cl)cc3)N2)C(=O)Nc2ccccc21` (stereo not drawn) the same measures were 3340 nM and 19500 nM.
With `COc1cc[nH]c1/C=C1\C(=O)Nc2ccc(F)c(C#CC3(O)CCOCC3)c21`, the GI50 was 710 nM and the TGI is 2900 nM.
The like results for `COc1ccc2nc3ccc(OC)cc3c(SCCCN)c2c1` were, in that order, 1400 nM and 2940 nM.
Turning to `CN1C(=O)c2cc(Cl)nc3c(NC(=O)c4cccc(Cl)c4)c(Cl)c(NC(=O)c4cccc(Cl)c4)c1c23`, the GI50 is 1990 nM and the TGI is 6050 nM.
Regarding `CCN(CC)CCC(=O)Nc1ccc(Cn2nnc3c2C(=O)c2nnn(Cc4ccc(NC(=O)CCN(CC)CC)cc4)c2C3=O)cc1`, the GI50 is 170 nM and the TGI came out at 374 nM.
With `CCCCCCCCCCCCCCCC[N+]1(CC)CCCC1`, the GI50 is 184 nM and the TGI is 799 nM.
With `CC[C@]12C=CCN3CC[C@]4(C(=C(C(=O)OC)C1)Nc1cc(O)ccc14)[C@@H]32`, the GI50 is 9380 nM and the TGI came out at 44000 nM.
Take `Oc1ccc(CSc2nnc(-c3cnccn3)o2)c2cccnc12`: the GI50 is 639 nM and the TGI was found to be 7800 nM.
Regarding `N#CC1c2ccccc2-c2ccccc2N1C(=O)c1ccccc1` (stereo not drawn), the GI50 is 383 nM and the TGI was above 26100 nM.
On to `COC(=O)[C@H](Cc1ccccc1)NC(=O)c1csc([C@@H](C[C@H](C(C)C)N(C)C(=O)[C@@H](NC(=O)[C@H]2CCCCN2C)C2CC2)OC(C)=O)n1`, for which the GI50 is 44.1 nM and the TGI was above 25000 nM.
Consider `Cc1nnc([S-])s1.[Au+].c1ccc([PH+](c2ccccc2)c2ccccc2)cc1`, for which the GI50 was 1270 nM and the TGI turned out to be 2860 nM.
Regarding `COc1ccc(/C=C\c2cc(OC)c(OC)c(OC)c2)cc1OP(=O)(O)O`, the GI50 was 54.3 nM and the TGI was above 100000 nM.
Regarding `COC(=O)c1cc(Nc2ccc(O)c3c2C(=O)c2c([N+](=O)[O-])ccc(O)c2C3=O)cc(C(=O)OC)c1`, the GI50 was 16500 nM and the TGI was 98500 nM.
On to `Oc1ccc(-c2nnc(SCc3ccc(O)c4ncccc34)o2)cc1`, for which the GI50 was 2000 nM and the TGI came to 8060 nM.
For `Cc1ccc(NCSc2ccc(Cl)cc2)cc1` the same measures were 2680 nM and 8050 nM.

For the origin of these results see PubChem BioAssay (NCI).
